Assay [1] deals with A-549. Description: Inhibition of cell growth by counting cells, A-549. The format is cell-based, human. To be noted: Homo sapiens, A549, 72 h; three days of incubation; read-out: IC50 (molar) A-549. In a few lines: (§1)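 Counts are net cells per well, averaged from duplicate wells, obtained by Coulter counting after trypsinization following 72 h of exposure at 37 °C. Seeding was 1×10^4 cells per well in EMEM/5% FCS with varied sample concentrations, alongside untreated growth controls. IC50 values derive from dose-response curves of % growth.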

Assay [2] relates to P-388. Put plainly: Inhibition of cell growth by counting cells, P-388. The format is cell-based, mouse. To be noted: Mus musculus, P388, 72 h; three days of incubation; read-out: IC50 (molar) P-388. Here is the method: (§2) 1°.—Inhibition of Cell Growth by Counting Cells.
(§3) This form of the assay employs 24 well multidishes of 16 mm diameter (Bergeron, 1984; Schroeder, 1981). The tumor cell lines employed are: P-388 (ATCC CCL 46), suspension culture of a lymphoid neoplasm from a DBA/2 mouse; A-549 (ATCC CCL 185), monolayer culture of a human lung carcinoma; HT-29 (ATCC HTB-38), monolayer culture of a human colon carcinoma; MEL-28 (ATCC HTB-72), monolayer culture of a human melanoma and DU-145 (ATCC HTB-81), monolayer culture of a human prostate carcinoma.
(§4) Cells were maintained, in logarithmic phase of growth in Eagle's Minimum Essential Medium, with Earle's Balanced Salts, with non-essential amino acids, with 2.0 mM L-Glutamine, without sodium bicarbonate (EMEM/neaa), supplemented with 10% Fetal Calf Serum (FCS), 10^−2 M. sodium bicarbonate and 0.1 U/l penicillin G+0.1 g/l streptomycin sulfate. For the experiments, cells are harvested from subconfluent cultures using trypsin and resuspended in fresh medium before plating.
(§5) P-388 cells were seeded into 16 mm diameter wells at 1×10^4 cells per well in 1 ml aliquots of EMEM 5% FCS containing different concentrations of the sample to be tested. A separate set of cultures without drug was seeded as control of growth, to ensure that cells remained in exponential phase of growth. All determinations are carrying out in duplicate.
(§6) For quantifying the activity, after the incubation time, cells are trypsinized and counted in a Coulter Counter ZM. All counts (net cells per well), represent the average of duplicate wells. % G, percent of growth relative to cultures without drug. The results of these assays are used to generate dose-response curves from which more precise IC50 values are determined (sample concentration which produces 50% cell growth inhibition).
(§7) Obtained results may predict the usefulness of a certain drug as a potential cancer treatment. For this technique, compounds which show IC50 values smaller than 1 μg/ml are selected to continue with further studies. IC50's data allow to predict that not only could a drug be cystostatic, but also it could have a potential in terms of tumor reduction.

In assay [3] the test system is MEL-28. Put plainly: Inhibition of cell growth by counting cells, MEL-28. Format: cell-based, human. To be noted: Homo sapiens, SK-MEL-28, 72 h; three days of incubation; read-out: IC50 (molar) MEL-28. As to the method:
as §2, §3, §4
as §5, with “A-549, HT-29, MEL-28 and DU-145” for “P-388”, “duplicate. After three days of incubation at 37° C., 5% CO2 in a 98% humid atmosphere cells were stained with 0.1% crystal violet. An approximately IC50 was determined by comparing the growth in wells with drug to the growth in wells control.” for “duplicate.”
as §6, §7

For assay [4], the system named is HT-29. Description: Inhibition of cell growth by counting cells, HT-29. The format is cell-based, human. To be noted: Homo sapiens, HT-29, 72 h; three days of incubation; read-out: IC50 (molar) HT-29. In a few lines:
as §1

The subject of assay [5] is DU-145. Put plainly: Inhibition of cell growth by counting cells, DU-145. The format is cell-based, human. To be noted: Homo sapiens, DU-145, 72 h; three days of incubation; read-out: IC50 (molar) DU-145. As to the method:
as §2, §3, §4
as §5, with “A-549, HT-29, MEL-28 and DU-145” for “P-388”, “duplicate. After three days of incubation at 37° C., 5% CO2 in a 98% humid atmosphere cells were stained with 0.1% crystal violet. An approximately IC50 was determined by comparing the growth in wells with drug to the growth in wells control.” for “duplicate.”
as §6, §7

Assay [6] concerns A-549. Put plainly: Inhibition of cells growth by colorimetric assay (SRB), A-549. Format: cell-based. Here is the method: (§8) 2°.—Inhibition of Cells Growth by Colorimetric Assay.
(§9) A colorimetric type of assay, using sulforhodamine B (SRB) reaction has been adapted for a quantitative measurement of cell growth and viability [following the technique described by Philip Skehan, et al. (1990), New colorimetric cytotoxicity assay for anticancer drug screening, J. Natl. Cancer Inst., 82:1107-1112]
(§10) This form of the assay employs 96 well cell culture microplates of 9 mm diameter (Faircloth, 1988; Mosmann, 1983). Most of the cell lines are obtained from American Type Culture Collection (ATCC) derived from different human cancer types.
(§11) Cells are maintained in RPMI 1640 10% FBS, supplemented with 0.1 g/l penicillin and 0.1 g/l streptomycin sulfate and then incubated at 37° C., 5% CO2 and 98% humidity. For the experiments, cells were harvested from subconfluent cultures using trypsin and resuspended in fresh medium before plating.
(§12) Cells are seeded in 96 well microtiter plates, at 5×10^3 cells per well in aliquots of 195 μl medium, and they are allowed to attach to the plate surface by growing in drug free medium for 18 hours. Afterward, samples are added in aliquots of 5 μl in a ranging from 10 to 10^−8 μg/ml, dissolved in DMSO/EtOH/PBS (0.5:0.5:99). After 48 hours exposure, the antitumor effect are measured by the SRB methodology: cells are fixed by adding 50 μl of cold 50% (wt/vol) trichloroacetic acid (TCA) and incubating for 60 minutes at 4° C. Plates are washed with deionized water and dried. One hundred μl of SRB solution (0.4% wt/vol in 1% acetic acid) is added to each microtiter well and incubated for 10 minutes at room temperature. Unbound SRB is removed by washing with 1% acetic acid. Plates are air dried and bound stain is solubilized with Tris buffer. Optical densities are read on a automated spectrophotometric plate reader at a single wavelength of 490 nm.
(§13) The values for mean+/−SD of data from triplicate wells are calculated. Some parameters for cellular responses can be calculated: GI=growth inhibition, TGI=total growth inhibition (cytostatic effect) and LC=cell killing (cytotoxic effect).
(§14) Obtained results may predict the usefulness of a certain drug as a potential cancer treatment. For this technique, compounds which show GI50 values smaller than 10 μg/ml are selected to continue with further studies. GI50's data allow to predict that not only could a drug be cystostatic, but also it could have a potential in terms of tumor reduction.

Assay [7] deals with SK-MEL-28. Put plainly: Inhibition of cells growth by colorimetric assay (SRB), SK-MEL-28. The note with it: Homo sapiens, SK-MEL-28, 48 h, SRB assay, 48 hours exposure; read-out: MEL-28 GI50. The format is cell-based. As to the method: as §8, §9, §10, §11, §12, §13, §14
In assay [8] the test system is HT-29. Description: Inhibition of cells growth by colorimetric assay (SRB), HT-29. Format: cell-based. Here is the method:
as §8, §9, §10, §11, §12, §13, §14

One may read the IC50 as the point on the concentration scale where inhibition reaches its midpoint. On to `COc1cc2c(cc1OC(=O)C(F)(F)F)CCN[C@]21CS[C@@H]2c3c(OC(C)=O)c(C)c4c(c3[C@H](COC1=O)N1C2[C@H]2c3c(cc(C)c(OC)c3O)C[C@@H]([C@@H]1C#N)N2C)OCO4` (stereo partly shown) [Compound 3], for which the IC50 in assay [1], in assay [2], in assay [3], in assay [4] and in assay [5] was 1.15 nM throughout.

`COc1cc2c(cc1OC(=O)OC(C)(C)C)CCN[C@]21CS[C@@H]2c3c(OC(C)=O)c(C)c4c(c3[C@H](COC1=O)N1C2[C@H]2c3c(cc(C)c(OC)c3O)C[C@@H]([C@@H]1C#N)N2C)OCO4` (stereo partly shown) [Compound 4]: the IC50 in assay [1], in assay [2], in assay [3], in assay [4] and in assay [5] was 0.115 nM throughout.

In the case of `CCCN1CCc2cc(O)c(OC)cc2[C@@]12CS[C@@H]1c3c(OC(C)=O)c(C)c4c(c3[C@H](COC2=O)N2C1[C@H]1c3c(cc(C)c(OC)c3O)C[C@@H]([C@@H]2C#N)N1C)OCO4` (stereo partly shown) [Compound 56], the IC50 in assay [1], in assay [2], in assay [3] and in assay [4] was 0.123 nM each time.

For `COc1cc2c(cc1OC(C)=O)CCN[C@]21CS[C@@H]2c3c(OC(C)=O)c(C)c4c(c3[C@H](COC1=O)N1C2[C@H]2c3c(cc(C)c(OC)c3OC(C)=O)C[C@@H]([C@@H]1O)N2C)OCO4` (stereo partly shown) [Compound 80], the IC50 is 5.92 nM in assay [1], 2.96 nM in assay [2], 5.92 nM in assay [3] and 5.92 nM in assay [4].

For the molecule `COc1cc2c(cc1O)CCN[C@]21CS[C@@H]2c3c(OC(C)=O)c(C)c4c(c3[C@H](COC1=O)N1C2[C@H]2c3c(cc(C)c(OC)c3OC(C)=O)C[C@@H]([C@@H]1O)N2C)OCO4` (stereo partly shown) [Compound 96], the half-maximal inhibitory concentration (IC50) in assay [1], in assay [2], in assay [3] and in assay [4] was 1.25 nM each time.

For the molecule `COc1cc2c(cc1O)CCN[C@]21CS[C@@H]2c3c(O)c(C)c4c(c3[C@H](COC1=O)N1C2[C@@H]2N[C@@H](Cc3cc(C)c(OC)c(O)c32)[C@@H]1C#N)OCO4` (stereo partly shown) [Compound 184], the IC50 in assay [1], in assay [2], in assay [3] and in assay [4] was 0.699 nM each time.

As for `COc1cc2c(cc1O)CCN(C)[C@]21CS[C@@H]2c3c(OC(C)=O)c(C)c4c(c3[C@H](COC1=O)N1C[C@@H]3Cc5cc(C)c(OC)c(O)c5[C@H](C21)N3C)OCO4` (stereo partly shown) [Compound 185], the 50% inhibitory concentration (IC50) in assay [1], in assay [2], in assay [3] and in assay [4] was 13.2 nM each time.

Take `COc1cc2c(cc1O)CCN[C@]21CS[C@@H]2c3c(OC(C)=O)c(C)c4c(c3[C@H](COC1=O)N1C2[C@@H]2N[C@@H](Cc3cc(C)c(OC)c(O)c32)[C@@H]1C#N)OCO4` (stereo partly shown) [Compound 186]: the IC50 in assay [1], in assay [2], in assay [3] and in assay [4] was 0.159 nM in each case.

With `C=CCOC(=O)Oc1cc2c(cc1OC)[C@@]1(CS[C@@H]3c4c(OC(C)=O)c(C)c5c(c4[C@H](COC1=O)N1C3[C@H]3c4c(cc(C)c(OC)c4O)C[C@@H]([C@@H]1C#N)N3C(=O)OCC=C)OCO5)NCC2` (stereo partly shown) [Compound 187], the 50% inhibitory concentration (IC50) in assay [1], in assay [2], in assay [3] and in assay [4] was 1.08 nM in each case.

Regarding `COc1cc2c(cc1O)CCN[C@]21CS[C@@H]2c3c(OC(C)=O)c(C)c4c(c3[C@H](COC1=O)N1C2[C@H]2c3c(cc(C)c(OC)c3O)C[C@@H]([C@@H]1C#N)N2C(=O)OC(C)(C)C)OCO4` (stereo partly shown) [Compound 188], the IC50 in assay [1], in assay [2], in assay [3] and in assay [4] was 0.583 nM each time.

`COc1cc2c(cc1OC(=O)OC(C)(C)C)CCN[C@]21CS[C@@H]2c3c(OC(C)=O)c(C)c4c(c3[C@H](COC1=O)N1C2[C@@H]2N[C@@H](Cc3cc(C)c(OC)c(O)c32)[C@@H]1C#N)OCO4` (stereo partly shown) [Compound 189]: the IC50 in assay [1], in assay [2], in assay [3] and in assay [4] was 0.583 nM each time.

With `COc1cc2c(cc1OC(=O)OC(C)(C)C)CCN[C@]21CS[C@@H]2c3c(OC(C)=O)c(C)c4c(c3[C@H](COC1=O)N1C2[C@H]2c3c(cc(C)c(OC)c3O)C[C@@H]([C@@H]1C#N)N2C(=O)OC(C)(C)C)OCO4` (stereo partly shown) [Compound 190], the IC50 in assay [1], in assay [2], in assay [3] and in assay [4] was 5.22 nM throughout.

Consider `C=CCOc1c(OC)c(C)cc2c1[C@H]1N[C@@H](C2)[C@H](C#N)N2C1[C@@H]1SC[C@]3(NCCc4cc(O)c(OC)cc43)C(=O)OC[C@H]2c2c3c(c(C)c(OC(C)=O)c21)OCO3` (stereo partly shown) [Compound 201], for which the IC50 was found to be 15.7 nM in assay [1], 12.6 nM in assay [2], 15.7 nM in assay [3] and 15.7 nM in assay [4].

The GI50 is the concentration that inhibits growth by half. Turning to `CCCCCCCCCCCCCCCC(=O)Oc1cc2c(cc1OC)[C@@]1(CS[C@@H]3c4c(OC(C)=O)c(C)c5c(c4[C@H](COC1=O)N1C3[C@@H]3N[C@@H](Cc4cc(C)c(OC)c(O)c43)[C@@H]1O)OCO5)NCC2` (stereo partly shown) [Compound 215], the GI50 in assay [6] (Homo sapiens, A549, 48 h, SRB assay, 48 hours exposure, read-out: A-549 GI50) was 92.4 nM; in assay [7], 19.7 nM; in assay [8] (Homo sapiens, HT-29, 48 h, SRB assay, 48 hours exposure, read-out: HT-29 GI50) it was 86.8 nM. The LC50 (concentration for 50% cell killing) stood at 10100 nM in assay [6] (Homo sapiens, A549, 48 h, read-out: A-549 LC50, SRB assay, 48 hours exposure) and 10100 nM in assay [8] (Homo sapiens, HT-29, 48 h, read-out: HT-29 LC50, SRB assay, 48 hours exposure). In assay [6] (SRB assay, 48 hours exposure), the “A-549 TGI” value stood at 1.01E-05. Besides, the “HT-29 TGI” value in assay [8] (SRB assay, 48 hours exposure) is given as 1.01E-05.

The record behind these values is patent publication US7759345B2, “Antitumoral derivatives of ET-743” (priority 2001, dated 2010).
